Results on five compounds are retold here after patent publication US12264146B2, “Rho kinase inhibitor, method for preparing same and uses thereof” (BEIJING INCREASE INNOVATIVE DRUG CO., LTD., priority 2018, dated 2025).

Data set [1] has as its system subarachnoid hemorrhage in rats. Briefly: Rat subarachnoid hemorrhage (SAH) model by intravascular puncture, Sugawara bleeding score. It counts as in vivo. The arrangement: dose or concentration left out as unconfirmed. As to conditions: tail vein injection, 2 administrations 4 h apart, scored 24 h after first administration (Sugawara). As for the experimental part: Rat subarachnoid hemorrhage (SAH) model was built by intravascular puncture. After being weighed, the rats were anesthetized with sodium pentobarbital (50 mg/kg) or chloral hydrate (300 mg/kg) by intraperitoneal injection, then fixed on their back and maintained the animal's body temperature at about 37° C. The rats' neck skin was shaved for surgery, a median incision was made on the neck, and muscle and fascia were separated along the inner edge of stemocleidomastoid muscle to expose the main and bifurcation of right common carotid artery, and expose the external and internal carotid arteries.
The bifurcation of internal carotid artery was gently clamped with ophthalmic forceps, the bifurcation of the internal carotid artery and the external carotid artery was pierced with a 6-gauge syringe needle, the ophthalmic forceps holding the bifurcation of internal carotid artery was slightly loosen, and No. 3 fishing thread was used to perform a puncture at the bleeding point, the ophthalmic forceps on the internal carotid artery was loosen, and the fishing thread was inserted into skull. […] After staying for 15 seconds, the thread for puncture was completely removed, and the skin was sutured after compression to stop the bleeding. 1.6 million units of penicillin potassium (400,000 units/ml, 0.2 ml/rat) was intramuscularly injected to avoid wound infection. For the sham operation group, the thread for puncture was removed when resistance was felt without piercing the bifurcation of the anterior cerebral artery and the middle cerebral artery, while the remaining operation steps were the same as the model group. After the operation, the rats were transferred to a thermal insulation blanket, then transferred to a squirrel cage when they were basically awake, and kept normally.
In this test experimental, 32 groups were set, i.e., Groups 1 to 32, in which Group 1 was a normal control group (healthy rats), Group 2 was a sham operation control group (not modeling by puncture), Group 3 was a model control group (modeling by puncture, administrated with normal saline), Group 4 was a positive control group (modeling by puncture, administrated with fasudil hydrochloride injection), and Groups 5 to 32 were test groups of the compounds of the present application (modeling by puncture, respectively administrated with the compounds of the present application); and there were 8 animals (purchased from SPF (Beijing) Biotechnology Co., Ltd., the certificate number was SYXK (Beijing) 2016-0002) in each group, half of them were female and half of them were male. The animals were subjected to fasting for 12 to 18 hours without prohibition of drinking water before modeling. […] The rats were euthanized 24 h after the first administration, and the brains were taken. According to Sugawara's method (Reference: Sugawara T, Ayer R, Jadhav V, et al. A new grading system evaluating bleeding scale in filament perforation subarachnoid hemorrhage rat model. J Neurosci Methods. 2008, 167(2):327-34), the subarachnoid hemorrhage amounts were scored, and the scoring results were as follows: […]

In data set [2] the test system is endothelial nitric oxide synthase (eNOS). Briefly: Endothelial nitric oxide synthase (eNOS) in EA.Hy926 endothelial cells, detection kit. As to conditions: 24 h; for expression of endothelial nitric oxide synthase in endothelial cells: Detection result of test compound at low dose (0.4 μM) / expression of endothelial nitric oxide synthase in endothelial cells: Detection result of test compound at medium dose (2 μM) / expression of endothelial nitric oxide synthase in endothelial cells: Detection result of test compound at high dose (10 μM): EA.Hy926 cell supernatant. It counts as cell-based. Here is the method:
(§1) Commercially available cytokine kits were used to detect the effects of the compounds of the present application on vascular endothelium-derived contracting factor endothelin, vascular endothelium-derived relaxing factor endothelial nitric oxide synthase, nitric oxide, and prostacyclin factor. The detection was performed according to the kit instructions. When testing the effect of the compound of the present application on cytokines, a normal control group, a fasudil hydrochloride group, and high-, medium- and low-dose groups of the compounds of the present application were set up for testing. The fasudil hydrochloride used in this test example was purchased from Beijing Sihuan Pharmaceutical Co., Ltd., with the SFDA approval number of H20173349. The EA.Hy926 cells used in this test example were purchased from Suzhou Beina Chuanglian Biotechnology Co., Ltd.
Detection conditions: EA.Hy926 cells were inoculated at 1×10^5 […] in a 96-well plate, 100 μL per well, and cultured adherently for 24 hours, then the test compound prepared with DMEM medium was added, the normal control group was added with an equal volume of DMEM medium, then the cells were cultured for 24 hours at 37° C., and then the cell supernatant was taken and placed in an EP tube, and centrifuged at 3000 r/min and 4° C. for 15 minutes, the resulting supernatant was transferred to a new EP tube, diluted 3 times, and detected according to the instruction of eNOs detection kit (purchased from Wuhan Elabscience Biotechnology Co., Ltd., Cat. No. AK0017OCT12013), and the detection results were shown in Table 4.

The next data set relates to nitric oxide (NO). Briefly: Synthesis and secretion of nitric oxide (NO) in EA.Hy926 endothelial cells, NO detection kit. It counts as cell-based. As to conditions: EA.Hy926 cell supernatant, 24 h. As for the experimental part: as §1
EA.Hy926 cells were inoculated in a 24-well plate at 5×10^5 cells/mL, 400 μL per well, and cultured adherently for 18 hours, then the supernatant was discarded, the test compound prepared in DMEM medium was added, and an equal volume of DMEM medium was added in the normal control group, then the cells was cultured for 24 h in incubator, and then the cell supernatant was collected and detected according to the instructions of NO detection kit (purchased from Beyotime Institute of Biotechnology, Cat. No. 062617171017), and the detection results were shown in Table 5.

A short description of data set [3]: Toxicity test on endothelial cells EA.hy926, CCK-8 cell viability. It counts as cell-based. Conditions: human, 1000~0.32 μmol/L, 5-fold dilution, read-out: IC50 of Test compound (cytotoxicity on EA.hy926 cells). Here is the method: In this test example, 31 groups, i.e., Groups 1 to 31, were set, in which Group 1 was a blank control group, Group 2 was a normal control group, Group 3 was a positive control group, and Groups 4 to 31 were test groups of the compounds of the present application. The specific test operation comprised: 100 μL of endothelial cells EA.hy926 (purchased from Suzhou Beina Chuanglian Biotechnology Co., Ltd.) with a density of 5×10^4 was added to each well of a 96-well plate, and transferred to an incubator at 37° C. with 5% CO2 and saturated humidity conditions and cultured for 24 hours, 100 μL of 2× the test compound solution prepared and diluted with DMEM medium containing 10% fetal bovine serum was added, in which the test compound added in the positive control group was Fasudil hydrochloride (purchased from Beijing Sihuan Pharmaceutical Co., Ltd., SFDA approval number H20173349) solution with different concentrations, an equal volume of DMEM medium was added in the blank control group, an equal volume of PBS buffer was added in the normal control group, and a duplicate well was set for each concentration point. After adding the test compound, the culture was continued in the incubator for 24 hours, then 20 μL of CCK-8 detection solution (purchased from Beijing Solarbio Science & Technology Co., Ltd., Cat. No. CA1210) was added to each well, interacted at 37° C. for 2.5 hours, shaken and mixed well, and then the absorbance value at 450 nm was detected.
OD values were detected, and the cell viability values of test groups of different concentrations were calculated according to the cell viability calculation formula as follows: Cell viability=(Atest group−Ablank control)/(Anormal control−Ablank control)*100%
wherein A represented absorbance value at 450 nm.
Prism6.0 was used to obtain the inhibitor concentration-viability curve and to calculate the IC50 of the test compound, the correlation coefficient R^2>0.99; the inhibitor concentration-viability curves of Fasudil hydrochloride, R-YK1601, R-YK1603, R-YK1606, R-YK1607, R-YK1610 were shown in FIGS. 1 to 6, in which the abscissa was the logarithm on base 10 of the concentration of the test compound, and the ordinate was the cell activity (i.e., cell viability).

On to `C[C@@H]1CNCCCN1S(=O)(=O)c1cccc2c(O)ncc(C3CC3)c12` [Compound R-YK1600-1, (R)-4-cyclopropyl-5-((2-methyl-1,4-diazacycloheptan-1-yl)sulfonyl)isoquinolin-1-ol], for which, in data set [1], the “Cerebral hemorrhage volume score (x ± s)” value turned out to be 13.37 ± 2.56. Also, in data set [2], the “expression of endothelial nitric oxide synthase in endothelial cells: Detection result of test compound at low dose (0.4 μM)” value (“expression … (0.4 μM)” for short) stood at 2528.44 ± 267.48 pg/mL, the “expression of endothelial nitric oxide synthase in endothelial cells: Detection result of test compound at medium dose (2 μM)” value (“expression … (2 μM)” below) was determined as 2485.91 ± 287.57 pg/mL and the “expression of endothelial nitric oxide synthase in endothelial cells: Detection result of test compound at high dose (10 μM)” value (“expression … (10 μM)” for short) stood at 2345.81 ± 213.65 pg/mL. Besides, in the data set with nitric oxide (NO), the “nitric oxide secretion in endothelial cells: Detection result of test compound at low dose (0.4 μM)” value (shortened to “nitric oxide secretion … (0.4 μM)”) is given as 1.012 ± 0.053 μm, the “nitric oxide secretion in endothelial cells: Detection result of test compound at medium dose (2 μM)” value (“nitric oxide secretion … (2 μM)” for short) is 1.099 ± 0.201 μm and the “nitric oxide secretion in endothelial cells: Detection result of test compound at high dose (10 μM)” value (from here on “nitric oxide secretion … (10 μM)”) came out at 1.148 ± 0.251 μm. In data set [3], the IC50 at 24 h stood at 188 µM.
Consider `COc1ncc(C2CC2)c2c(S(=O)(=O)N3CCCNC[C@H]3C)cccc12` [Compound R-YK1600-2, (R)-4-cyclopropyl-1-methoxy-5-((2-methyl-1,4-diazacycloheptan-1-yl)sulfonyl)isoquinoline], for which the “Cerebral hemorrhage volume score (x ± s)” value in data set [1] is given as 13.59 ± 2.67. Moreover, in data set [2], the “expression … (0.4 μM)” value worked out at 2428.32 ± 287.58 pg/mL, the “expression … (2 μM)” value is 2384.92 ± 317.27 pg/mL and the “expression … (10 μM)” value is 2245.86 ± 224.65 pg/mL. In the data set with nitric oxide (NO), the “nitric oxide secretion … (0.4 μM)” value came to 0.982 ± 0.096 μm, the “nitric oxide secretion … (2 μM)” value is reported as 1.037 ± 0.062 μm and the “nitric oxide secretion … (10 μM)” value is 1.139 ± 0.263 μm. The IC50 at 24 h in data set [3] is 145 µM.
In the case of `C[C@@H]1CNCCCN1S(=O)(=O)c1cccc2c(O)nccc12` [Compound R-YK1601, (R)-5-((2-methyl-1,4-diazacycloheptan-1-yl)sulfonyl)isoquinolin-1-ol], the “Cerebral hemorrhage volume score (x ± s)” value in data set [1] is reported as 11.75 ± 2.05. Further, in data set [2], the “expression … (0.4 μM)” value was 2526.66 ± 220.56 pg/mL, the “expression … (2 μM)” value worked out at 2339.70 ± 249.84 pg/mL and the “expression … (10 μM)” value is 2598.44 ± 365.33 pg/mL. Further, the “effect on the expression of nitric oxide synthase (in words)” value in data set [2] (high dose) is listed as “slight promotion effect”. Besides, in the data set with nitric oxide (NO), the “nitric oxide secretion … (0.4 μM)” value is 0.806 ± 0.057 μm, the “nitric oxide secretion … (2 μM)” value is recorded as 0.896 ± 0.147 μm and the “nitric oxide secretion … (10 μM)” value is given as 1.131 ± 0.134 μm. In addition, in data set [3], the 50% inhibitory concentration (IC50) at 24 h was 686 µM.
As to `COc1nccc2c(S(=O)(=O)N3CCCNC[C@H]3C)cccc12` [Compound R-YK1602, (R)-1-methoxy-5-((2-methyl-1,4-diazacycloheptan-1-yl)sulfonyl)isoquinoline], in data set [1], the “Cerebral hemorrhage volume score (x ± s)” value amounted to 11.95 ± 2.04. Moreover, in data set [2], the “expression … (0.4 μM)” value amounted to 2607.85 ± 384.81 pg/mL, the “expression … (2 μM)” value is 2314.00 ± 393.66 pg/mL and the “expression … (10 μM)” value is 2262.45 ± 134.54 pg/mL. Besides, in the data set with nitric oxide (NO), the “nitric oxide secretion … (0.4 μM)” value worked out at 0.878 ± 0.006 μm, the “nitric oxide secretion … (2 μM)” value is reported as 0.914 ± 0.032 μm and the “nitric oxide secretion … (10 μM)” value came to 1.005 ± 0.006 μm. Further, in data set [3], the IC50 at 24 h was 433 µM.
As to `C[C@@H]1CNCCCN1S(=O)(=O)c1cccc2cnccc12` [Compound R-YK1603, (R)-5-((2-methyl-1,4-diazacycloheptan-1-yl)sulfonyl)isoquinoline], in data set [1], the “Cerebral hemorrhage volume score (x ± s)” value came out at 12.06 ± 1.98. In data set [2], the “expression … (0.4 μM)” value worked out at 2928.44 ± 257.48 pg/mL, the “expression … (2 μM)” value was 2385.91 ± 387.57 pg/mL and the “expression … (10 μM)” value amounted to 2245.94 ± 213.65 pg/mL. Also, in the data set on nitric oxide (NO), the “nitric oxide secretion … (0.4 μM)” value is 1.207 ± 0.000 μm, the “nitric oxide secretion … (2 μM)” value came out at 0.743 ± 0.070 μm and the “nitric oxide secretion … (10 μM)” value is given as 0.910 ± 0.025 μm. For the same compound, the IC50 at 24 h in data set [3] came to 256 µM.
